Values of other authors in article doi:10.1101/2023.11.06.565863v1 (bioRxiv, 2023).

Legend:
R1441C-LRRK2 MEFs [1] = system: R1441C-LRRK2 MEFs
R1441C-LRRK2 MEFs [2] = system: R1441C-LRRK2 MEFs; remark: listed apart in the source

Structure (SMILES): C[C@@H]1CN(c2cc(-c3n[nH]c4ccc(OC5(C)CC5)cc34)ncn2)C[C@H](C)O1 [MLi2]
- Centrosome cohesion defects of R1441C-LRRK2 MEFs vs littermate wildtype MEFs (R1441C-LRRK2 MEFs [1]): reverted
- Ciliogenesis defects of R1441C-LRRK2 MEFs vs littermate wildtype MEFs (R1441C-LRRK2 MEFs [2]): reverted
